From patent US4150126A, “Novel enol esters of steroids, compositions containing such compounds, processes for their preparation and methods of treatment therewith” (Aktiebolaget Leo, priority 1976, dated 1979)

What was measured:
ventral prostate = test: Androgenic effect in castrated male rats (ventral prostate weight); type: in vivo; settings: both after subcutaneous and intraperitoneal administration; one daily injection for 7 days; preliminary experiments
Protocol: The androgenic activity, as described below, is determined with established methods (see e.g. Dorfman, R.: Methods in Hormone Research, vol. II, Acad. Press, New York and London 1962, p. 275).
The androgenic effect is assayed in castrated male rats. Beginning two weeks after castration the animals are given one daily injection of the compound for 7 days. The weight of the ventral prostate is determined on the 8th day.

Hepatoma AH 130 = Hepatoma AH 130 tumour growth inhibition in rats, i.p.; type: in vivo, Sprague-Dawley rats; settings: Hepatoma AH 130, one injection i.p.
Excerpt: (§1) LD50 is the dose that causes a 50 percent lethality of the animals, and ED50 is the dose that causes a 50 percent reduction of tumour size.
(§2) From the data below it is obvious that the compounds have a very low toxicity, and that the therapeutic indexes (T.I.), i.e. the ratios LD50/ED50, are very high.
(§3) The experimental design is in accordance with the standards set by the CCNSC (Cancer Cheomotherapy Reports, January 1959 and December 1962).
(§4) Experimental animals: Sprague-Dawley rats.
Tumour implant: 5 × 10^6 tumour cells i.p.
(§5) Therapy: One injection i.p. on the day following implantation.
(§6) Termination: The animals are killed on the 8th day.
(§7) Evaluation: Weights of tumours of test animals are compared
(§8) with those of control animals.

[1] = Thymolytic activity (Hilger, Endocrine Bioassay Data, assay 8); type: in vivo; settings: preliminary experiments
Excerpt: In preliminary experiments, invvestigating the thymolytic effect according to A. C.

[2] = Progestional activity, Clauberg test; type: in vivo; settings: standard scale of McPhail, preliminary experiments
Excerpt: The progestional activities of compounds 1:1, 1:2, 1:14, 2:2, and 2:11 are investigated in the Clauberg test using the prinicpal procedure as described by Elton and Edgren (Endocrinology 63 (1958) 464) and using the standard scale of McPhail (J. Physiol., London, 8 (1934) 145).

[3] = test system: Ehrlich ascites tumour, ELD hyperdiploid (46 chromosomes); test: Ehrlich ascites tumour growth inhibition in mice, i.p.; type: in vivo, SPF NMRI mice; settings: one injection i.p.; for Tumour weight Treated/Control (%): killed on 8th day
Excerpt: as §3
Ehrlich ascites tumour, ELD hyperdiploid
Experimental animals: SPF NMRI mice.
Tumour implant: 2 × 10^6 tumour cells i.p.
as §5, §6
Evaluation: Weight of tumours of test animals compared with
those of control animals.

[4] = test system: Walker carcinosarcoma 256; test: Walker carcinosarcoma 256 tumour growth inhibition in rats, p.o.; type: in vivo, Sprague-Dawley rats; settings: Walker carcinosarcoma 256, daily p.o. for 5 days
Excerpt: as §1, §2, §3
Walker carcinosarcoma 256
as §4
Tumour implant: Tumour pieces with 2-4 mm diameter, subcu-
Therapy: Daily p.o. administration for 5 days starting on
the day following implantation.
Termination: The animals are killed on the 9th day.
as §7, §8

CC(=O)O[C@H]1CC[C@H]2[C@@H]3CC=C4C=C(OC(=O)Cc5ccc(N(CCCl)CCCl)cc5)CC[C@]4(C)[C@H]3CC[C@]12C [1:3]
androgenic effect (ventral prostate): considerable effect

CC(=O)O[C@H]1CC[C@H]2[C@@H]3CC=C4C=C(OC(=O)CCCc5ccc(N(CCCl)CCCl)cc5)CC[C@]4(C)[C@H]3CC[C@]12C [1:11, 17β-acetoxy-3-[4-(4-(N,N-bis(2-chloroethyl)amino)phenyl)butanoyloxy]androsta-3,5-diene]
androgenic effect (ventral prostate): considerable effect

CC(=O)O[C@H]1CC[C@H]2[C@@H]3CCC4CC(OC(=O)CCCc5ccc(N(CCCl)CCCl)cc5)=CC[C@]4(C)[C@H]3CC[C@]12C (stereo partly drawn) [1:12, 17β-acetoxy-3-[4-(4-(N,N-bis(2-chloroethyl)amino)phenyl)butanoyloxy]androst-2-ene]
androgenic effect (ventral prostate): considerable effect

CCC(=O)O[C@H]1CC[C@H]2[C@@H]3CC=C4C=C(OC(=O)[C@H](Cc5ccc(N(CCCl)CCCl)cc5)NC(C)=O)CC[C@]4(C)[C@H]3CC[C@]12C [1:13, 3-[(2S)-2-acetamido-3-(4-(N,N-bis(2-chloroethyl)amino)phenyl)propanoyloxy]-17β-propanoyloxyandrosta-3,5-diene]
anti-tumour activity (Hepatoma AH 130): exhibit anti-tumour activity

CC(=O)OCC(=O)[C@@]1(OC(C)=O)CC[C@H]2[C@@H]3CC=C4C=C(OC(=O)CCCc5ccc(N(CCCl)CCCl)cc5)CC[C@]4(C)[C@H]3C(=O)C[C@@]21C [1:15, 17,21-diacetoxy-3-[4-(4-(N,N-bis(2-chloroethyl)amino)phenyl)butanoyloxy]pregna-3,5-dien-11,20-dione]
thymolytic effect [1]: significant activity

CC(=O)OCC(=O)[C@@]1(OC(C)=O)CC[C@H]2[C@@H]3CC=C4C=C(OC(=O)CCCc5ccc(N(CCCl)CCCl)cc5)CC[C@]4(C)[C@H]3CC[C@@]21C [1:16, 17,21-diacetoxy-3-[4-(4-(N,N-bis(2-chloroethyl)amino)phenyl)butanoyloxy]-pregna-3,5-dien-20-one]
thymolytic effect [1]: significant activity

CC(=O)OCC(=O)[C@H]1CC[C@H]2[C@@H]3CC=C4C=C(OC(=O)CCCc5ccc(N(CCCl)CCCl)cc5)CC[C@]4(C)[C@H]3CC[C@]12C [1:17, 21-acetoxy-3-[4-(4-(N,N-bis(2-chloroethyl)amino)phenyl)butanoyloxy]-pregna-3,5-dien-20-one]
thymolytic effect [1]: significant activity

CC(=O)O[C@]1(C(C)=O)CC[C@H]2[C@@H]3CC=C4C=C(OC(=O)c5ccc(C)c(N(CCCl)CCCl)c5)CC[C@]4(C)[C@H]3CC[C@@]21C [2:11, 17-acetoxy-3-[3-(N,N-bis(2-chloroethyl)amino)-4-methylbenzoyloxy]pregna-3,5-dien-20-one]
progestional activity [2]: considerable activity
Mortality ([3]; 1000 mg/kg): 0/12
Tumour weight Treated/Control (%) ([3]; 1000 mg/kg): 2%

CC(=O)O[C@]1(C(C)=O)CC[C@H]2[C@@H]3CC=C4C=C(OC(=O)CCCc5ccc(N(CCCl)CCCl)cc5)CC[C@]4(C)[C@H]3CC[C@@]21C [Compound 1:1, 17-acetoxy-3-/4-(4-(N,N-bis(2-chloroethyl)amino)phenyl)butanoyloxy/pregna-3,5-dien-20-one]
anti-tumour activity (Hepatoma AH 130): exhibit anti-tumour activity
progestional activity [2]: considerable activity
Mortality ([3]; 500 mg/kg): 0/12
Tumour weight Treated/Control (%) ([3]; 500 mg/kg): 1%

CC(=O)[C@H]1CC[C@H]2[C@@H]3CC=C4C=C(OC(=O)CCCc5ccc(N(CCCl)CCCl)cc5)CC[C@]4(C)[C@H]3CC[C@]12C [Compound 1:2, 3-/4-(4-(N,N-bis(2-chloroethyl)amino)phenyl)butanoyloxy/pregna-3,5-dien-20-one]
progestional activity [2]: considerable activity

CC(=O)O[C@]1(C(C)=O)CC[C@H]2[C@@H]3CC=C4C=C(OC(=O)Cc5ccc(N(CCCl)CCCl)cc5)CC[C@]4(C)[C@H]3CC[C@@]21C [Compound 1:14, 17-acetoxy-3-[4-(N,N-bis(2-chloroethyl)amino)phenylacetoxy]pregna-3,5-dien-20-one]
progestional activity [2]: considerable activity

CC(=O)O[C@H]1CC[C@H]2[C@@H]3CC[C@H]4CC(OC(=O)c5ccc(C)c(N(CCCl)CCCl)c5)=CC[C@]4(C)[C@H]3CC[C@]12C [Compound 2:1, 17β-acetoxy-3-/3-(N,N-bis(2-chloroethyl)amino)-4-methylbenzoyloxy/androst-2-ene]
anti-tumour activity [4]: exhibit anti-tumour activity

C#C[C@]1(OC(C)=O)CC[C@H]2[C@@H]3CC=C4C=C(OC(=O)CCCc5ccc(N(CCCl)CCCl)cc5)CC[C@@H]4[C@H]3CC[C@@]21C [Compound 2:2, 17β-acetoxy-3/4-(4-(N,N-bis(2-chloroethyl)amino)phenyl)butanoyloxy/-17α-ethynylestra-3,5-diene]
progestional activity [2]: considerable activity
